Key:
[1] = test system: Pseudokirchneriella subcapitata; assay: Algal growth inhibition test (OECD 201); type: cell-based
Description: The in vivo evaluation of compounds (1) and (2) for acute toxicity was performed towards marine bacterium Aliivibrio fischeri, and planktonic crustacean Daphnia magna. The chronic ecotoxicity tests were evaluated using algae Pseudokirchneriella subcapitata and Phaeodactylum tricornutum.
Freshwater and marine algal growth inhibition was assessed using P. subcapitata and P. tricornutum according to OECD Guideline 201 procedures (“Alga, Growth Inhibition Test”), ISO-8692 (“Water quality–Fresh water algal growth inhibition test with unicellular green algae”) and ISO-10253. Briefly, the algae cells were de-immobilized from algal beads using Matrix dissolving medium (Microbiotests), according to the manufacturer’s instructions, and grown in flasks containing algal culturing medium which was prepared following the OECD Guideline 201 and ISO-8692. Flasks with algae were kept for 7 days under light with orbital agitation. When the algae culture had sufficient cells, as verified by the optical density at 670 nm, these were tested at an initial cell density of 1 × 10^6 cells/mL in algal culturing medium. Madeirone (1) and neomarinone (2) were dissolved in DMSO and tested at the concentrations of 100, 50, 25, 12.5, 6.25, 3.13, and 1.56 μg/mL. The algae were cultured in microplates in triplicate and were kept for 4 days under light with orbital agitation. […] Each experiment was performed in triplicate and the results of two independent experiments with <10% SD are presented. Growth inhibition calculations were performed using cell numbers (biomass), as determined by a calibration line. Potassium dichromate (K2Cr2O7) was used as a positive control.

[2] = test system: M. luteus; assay: Antibiofilm activity (inhibition of biofilm formation); type: cell-based, Micrococcus luteus DSM 20030
Description: (§1) To assess antimicrofouling activity, we selected five marine bacterial species as models: Marinobacter hydrocarbonoclasticus DSM 8798 (ATCC 49840), C. marina DSM 4741, Phaeobacter inhibens DSM 17,395, Pseusooceanicola batsensis DSM 15,984, and Micrococcus luteus DSM 20030 (ATCC 4698) ([Michael et al., 2016]). These strains, sourced from DSMZ (Leibniz Institute DSMZ—German Collection of Microorganisms and Cell Cultures), were cultured in liquid marine broth (Carl Roth GmbH, Karlsruhe, Germany) with agitation at 180 rpm or on agar-supplemented marine broth. Incubation temperatures were set at 28°C for M. hydrocarbonoclasticus and Cobetia marina, 30°C for P. inhibens and P. batsensis, while M. luteus was maintained at 37°C in Brain Heart Infusion broth (BHI, Becton Dickinson, GmbH, Heidelberg, Germany) under similar agitation conditions.
The antibiofilm potential of compounds (1) and (2) against the five marine bacterial species was investigated in 96-well polystyrene flat-bottom microplates (Nunclon Delta Surface, Thermo Scientific, Roskilde, Denmark), as described previously ([Bauermeister et al., 2019]; [Pereira et al., 2020]). In the initial screening, bacterial overnight cultures were diluted to an OD600 of 0.2 and incubated statically at appropriate temperatures. The cultures were tested at 31.25, 15.60, 7.81, 3.91, 1.95, 0.98 μg/mL concentrations (2-fold serial dilutions) of compounds (1) and (2), solubilized in DMSO, or left untreated. After 24 h (M. hydrocarbonoclasticus, C. marina) or 48 h (P. batsensis, P. inhibens, M. luteus) incubation, OD600 was measured. The planktonic cells and media were discarded, and the wells were washed twice with deionized water. Biofilms were fixed, stained, and quantified by measuring the OD600 after solubilization with acetic acid. Biofilm inhibition percentages were calculated relative to untreated bacterial species, using DMSO as a negative control and CuSO4 (0.16 μg/mL), as a positive control. All assays were performed in triplicate, and the results represent the mean and standard error of the mean (SEM). Statistical analysis was conducted using GraphPad Prism 8.0.2, employing one-way ANOVA followed by Dunnett’s multiple comparisons test against the negative control.

[3] = test system: M. luteus; assay: Antibacterial activity (growth inhibition, OD600); type: cell-based, Micrococcus luteus DSM 20030; conditions: 48 h
Description: as §1
The antibacterial efficacy of compounds (1) and (2) was assessed in 96-well polystyrene flat-bottom microplates (Nunclon Delta Surface, Thermo Scientific, Roskilde, Denmark) following established procedures ([Bauermeister et al., 2019]). In the initial screening, bacterial overnight cultures were diluted to an optical density (OD600nm) of 0.2 and incubated statically at appropriate temperatures. The cultures were treated with the following final concentrations per well: 31.25, 15.60, 7.81, 3.91, 1.95, and 0.98 μg/mL (2-fold serial dilutions) of the compounds, solubilized in DMSO, or left untreated. After 24 h (M. hydrocarbonoclasticus, C. marina) or 48 h (P. batsensis, P. inhibens, M. luteus) incubation, optical density at 600 nm (OD600) was measured using a Molecular Devices Spectra Max 190. Growth inhibition percentages were calculated relatively to untreated bacterial species, using DMSO as a negative control. CuSO4 (0.16 μg/mL), a recognized antifouling agent, was used as positive control. All assays were conducted in triplicate, and the results represent the mean and standard error of the mean (SEM). Statistical analysis was carried out using GraphPad Prism 8.0.2 (San Diego, CA, United States), employing one-way ANOVA followed by Dunnett’s multiple comparisons test against the negative control.

SMILES: CC1=CCC[C@@H](C)[C@]1(C)CC[C@@]1(C)c2c(O)cc3c(c2O[C@@H]1C)C(=O)C(C)=C(O)C3=O [compound 2, neomarinone]
- Inhibition (%) P. subcapitata (growth) ([1]; 50 µg/mL): 9.7%
- Inhibition (%) P. subcapitata (growth) ([1]; 100 µg/mL): 26.2%
- Biofilm inhibition (%) M. luteus ([2]; 0.98 µg/mL, 48 h): N.I.
- Biofilm inhibition (%) M. luteus ([2]; 1.95 µg/mL, 48 h): N.I.
- Biofilm inhibition, up to (highest over tested concentrations) M. luteus ([2]; 0.98-31.25 µg/mL tested): up to 40%
- inhibition at 3.91 µg/mL ([2]; Micrococcus luteus, 3.91 µg/mL, 48 h): 7.8 ± 16.9%
- inhibition at 7.81 µg/mL ([2]; Micrococcus luteus, 7.81 µg/mL, 48 h): 29.9 ± 12.4%
- inhibition at 15.6 µg/mL ([2]; Micrococcus luteus, 15.60 µg/mL, 48 h): 41 ± 8.2%
- inhibition at 31.25 µg/mL ([2]; Micrococcus luteus, 48 h): 33.3 ± 7.3%
- Growth inhibition (%) M. luteus ([3]; 15.60 µg/mL): N.I.
- Growth inhibition (%) M. luteus ([3]; 31.25 µg/mL): N.I.
- inhibition at 0.98 µg/mL ([3]; Micrococcus luteus, 0.98 µg/mL): 1.8 ± 0.4%
- inhibition at 1.95 µg/mL ([3]; Micrococcus luteus, 1.95 µg/mL): 3.8 ± 1.7%
- inhibition at 3.91 µg/mL ([3]; Micrococcus luteus, 3.91 µg/mL): 9 ± 0.9%
- inhibition at 7.81 µg/mL ([3]; Micrococcus luteus, 7.81 µg/mL): 6.8 ± 1%

SMILES: CC1=CCC[C@@H](C)[C@]1(C)CC[C@@]1(C)c2c(O)cc3c(c2O[C@@H]1C)C(=O)C=C(CO)C3=O (relative stereo) [compound 1, madeirone]
- Inhibition (%) P. subcapitata (growth) ([1]; 25 µg/mL): 9.1%
- Inhibition (%) P. subcapitata (growth) ([1]; 50 µg/mL): 27.3%
- Inhibition (%) P. subcapitata (growth) ([1]; 100 µg/mL): 52.8%
- Biofilm inhibition (%) M. luteus ([2]; 0.98 µg/mL, 48 h): N.I.
- Biofilm inhibition (%) M. luteus ([2]; 1.95 µg/mL, 48 h): N.I.
- Biofilm inhibition (%) M. luteus ([2]; 3.91 µg/mL, 48 h): N.I.
- Biofilm inhibition (%) M. luteus ([2]; 7.81 µg/mL, 48 h): N.I.
- Biofilm inhibition (%) M. luteus ([2]; 15.60 µg/mL, 48 h): N.I.
- inhibition at 31.25 µg/mL ([2]; Micrococcus luteus, 48 h): 35.3 ± 0.2%
- Growth inhibition (%) M. luteus ([3]; 0.98 µg/mL): N.I.
- Growth inhibition (%) M. luteus ([3]; 1.95 µg/mL): N.I.
- Growth inhibition (%) M. luteus ([3]; 3.91 µg/mL): N.I.
- Growth inhibition (%) M. luteus ([3]; 7.81 µg/mL): N.I.
- Growth inhibition (%) M. luteus ([3]; 15.60 µg/mL): N.I.
- inhibition at 15.6 µg/mL ([3]; Micrococcus luteus, 15.60 µg/mL): 9.2%
- inhibition at 31.25 µg/mL ([3]; Micrococcus luteus, 31.25 µg/mL): 20 ± 0.5%
